Measurements from publication PMC11943723, “Synthesis and Biological Activity of Glycosyl Thiazolyl Disulfides Based on Thiacarpine, an Analogue of the Cytotoxic Alkaloid Polycarpine from the Ascidian Polycarpa aurata” (Marine Drugs, 2025).
In brackets after ≈: the same amount, converted by molar mass. Where a name gives a salt, the structure may show the parent alone.

Tests used:
[1] = test system: MDA-MB-231 (triple-negative breast cancer); test: MTT cell viability assay, MDA-MB-231; format: cell-based, human; details: Homo sapiens, MDA-MB-231, 24 h, 24 h incubation, read-out: Cytotoxicity EC50, MDA-MB-231 (TNBC)
Source text: (§1) Human erythrocytes were purchased from the blood transfusion station Vladivostok. Human breast cancer cell lines MCF-7^HTB−22, and MDA-MB-231^CRM-HTB−26, liver hepatocellular carcinoma Hep G2^HB−8065, prostate adenocarcinoma PC-3^CRL−1435, cervical adenocarcinoma HeLa^CRM-CCL−2, and normal bronchial epithelial cells BEAS-2B ^CRL−3588 were received from ATCC (Manassas, VA, USA).
(§2) DMEM medium (Biolot, Russia) with 1% penicillin/streptomycin and 10% fetal bovine serum (FBS) (Biolot, Russia) was used for cultivation of Hep G2, PC-3, HeLa, and Beas-2b. MEM medium (Biolot, Russia) with 1% penicillin/streptomycin sulfate (Biolot, Russia) and FBS (Biolot, Russia) to a final concentration of 10% for MCF-7 and MDA-MB-231 cells.
(§3) The effect of the studied compounds on the viability of human cancer and normal cells was determined using the MTT (3-[4,5-dimethylthiazol-2-yl]-2,5 diphenyl tetrazolium bromide) assay. Briefly, 6 × 10^3 cells per well were seeded into 96-well plates and incubated for 24 h for adhesion, followed by incubation for 24 h with different concentrations of the substances. After incubation, the medium containing the test substances was replaced with 100 µL of fresh medium. Then, 10 μL of MTT (Sigma-Aldrich, Madison, WI, USA) reagent (5 mg/mL MTT in PBS) was added into the cells and the plates for additional 4 h. Thereafter, 100 µL of SDS-HCl solution (1 g SDS/10 mL dH2O/17 µL 6N HCl) was added to each well and incubated for 18 h. The absorbance of the converted formazan dye was measured using a Multiskan FC microplate photometer (Thermo Scientific, Waltham, MA, USA) at a wavelength of 570 nm. All experiments were performed in triplicate. Cytotoxic activity was expressed as a percentage of the cell viability.

HeLa (cervical cancer) = test: MTT cell viability assay, HeLa; format: cell-based, human; details: Homo sapiens, HeLa, 24 h, 24 h incubation, read-out: Cytotoxicity EC50, HeLa
Source text: as §1, §2, §3

[2] = test system: Hep G2 (hepatocellular carcinoma); test: MTT cell viability assay, Hep G2; format: cell-based; details: Homo sapiens, HepG2, 24 h incubation, read-out: Cytotoxicity EC50, Hep G2
Source text: as §1, §2, §3

[3] = test system: Candida albicans (KMM 455); test: Antimicrobial activity, inhibition of microbial growth (optical density); format: cell-based; details: 18 h, OD 620 nm; for MIC50: Candida albicans, KMM455, read-out: Inhibition of Microbial Growth MIC50, C. albicans
Method: (§4) The antimicrobial activity of the compounds was determined against Gram-positive bacteria Staphylococcus aureus (ATCC 21027), Gram-negative bacteria Escherichia coli (VKPM B-7935), and yeast-like fungi Candida albicans (KMM 455) (all test strains were obtained from the Collection of Marine Microorganisms KMM PIBOC FEB RAS) in liquid nutrient media. Test cultures of S. aureus, E. coli, and C. albicans were grown in Petri dishes on a solid nutrient medium (Mueller–Hinton broth with the addition of agar—16.0 g/L) at 37 °C for 24 h. The antimicrobial activity of the compounds was determined by the change in optical density and expressed as the percentage of bacterial inhibition at different concentrations of substances added to the well of the microorganism suspension, compared to the control. The compounds were dissolved in dimethyl sulfoxide (DMSO) at a concentration of 10 mM and stored at −20 °C. Before the experiment, the solution of substances in DMSO was diluted with PBS at a concentration of 0.5–100.0 µM and added to the wells so that the concentration of DMSO in the culture medium was less than 1%. Antimicrobial activity was determined in 96-well microplates in a liquid Mueller–Hinton nutrient medium. For S. aureus, E. coli, and C. albicans, a bacterial suspension of 10^6 CFU in 1 mL of the media was used, 90 μL was added to each well of the microplates and then incubated in a thermostatted shaker at 37 °C for 18 h. Inhibition of microorganism growth was assessed by measuring the optical density at 620 nm using a microplate reader (Thermo Fisher Scientific, Waltham, MA, USA) after preliminary shaking of the plates for 10 min. All experiments were performed in triplicate. Gentamicin (S. aureus and E. coli) and nitrofungin (C. albicans) were used as positive controls, and 1% DMSO in PBS was used as a negative control.

[4] = test system: Escherichia coli (VKPM B-7935); test: as above; format: cell-based; details: Escherichia coli; 18 h, OD 620 nm; read-out: Inhibition of Microbial Growth MIC50, E. coli
Method: as §4

[5] = test system: Staphylococcus aureus (ATCC 21027); test: as above; format: cell-based; details: Staphylococcus aureus, ATCC21027; 18 h, OD 620 nm; read-out: Inhibition of Microbial Growth MIC50, S. aureus
Method: as §4

[6] = MTT cell viability assay, BEAS-2B normal cells; format: cell-based; details: human, BEAS-2B normal bronchial epithelial cells, 24 h incubation, read-out: Cytotoxicity EC50, BEAS 2B
Source text: as §1, §2, §3

[7] = test system: Candida albicans (KMM 455); test: Inhibition of biofilm formation (MTT); format: cell-based; details: 24 h
Method: Biofilm formation was performed according to the method described by Walencka et al., with minor modifications. The compounds were dissolved in dimethyl sulfoxide (DMSO) at a concentration of 10 mM and stored at −20 °C. Before the experiment, the solution of substances in DMSO was diluted with PBS at a concentration of 0.5–100.0 µM and added to the wells so that the concentration of DMSO in the culture medium was less than 1%. Biofilm formation was assessed in 96-well microplates in a liquid Mueller–Hinton nutrient medium. For S. aureus, E. coli, and C. albicans, a bacterial suspension of 10^6 CFU in 1 mL of medium was used, 90 μL was added to each well of the microplates and then incubated in a thermostatted shaker at 37 °C for 24 h. After incubation, the suspension of planktonic microorganisms was removed from the plate and washed with PBS. Next, 100 μL of PBS and 10 μL of MTT (3-(4,5-dimethylthiazol-2-yl)-2,5-diphenyltetrazolium bromide, MTT reagent, Sigma) stock solution (5 mg/mL) were added to the wells and incubated for 3 h at 37 °C. After incubation, all the solution was removed from the wells, 100 μL of DMSO was added, and the plate was shaken for 10 min until all formazan crystals had dissolved. The absorption was measured using a plate reader (Thermo Fisher Scientific, Waltham, MA, USA) at a wavelength of 570 nm. The activity of the substances was assessed by the change in optical density compared with that of the control. All experiments were performed in triplicate. Gentamicin (S. aureus and E. coli) and nitrofungin (C. albicans) were used as positive controls, and 1% DMSO in PBS was used as a negative control.

Compound	MIC50 [3]	MIC50 [4]	MIC50 [5]	EC50 [1]	EC50 (HeLa (cervical cancer))	EC50 [2]	EC50 at 24 h [6]	Inhibition of Biofilm Formation MIC50, C. albicans [7]	Inhibition of Microbial Growth MIC50, C. albicans [3]
CNC(C)C1CCC(N)C(OC2C(N)CC(N)C(OC3OCC(C)(O)C(NC)C3O)C2O)O1 (centres unmarked) [Gentamicin, reference compound]	–	5.1 ± 0.7 µM (≈ 2.44 µg/mL)	4.3 ± 0.8 µM (≈ 2.05 µg/mL)	–	–	–	–	–	–
Cc1ccc(-c2nc(N)sc2SSc2sc(N)nc2-c2ccc(C)cc2)cc1 [Compound 1e]	19.5 ± 2 µM (≈ 8.63 µg/mL)	33.9 ± 3.9 µM (≈ 15 µg/mL)	30.7 ± 2.1 µM (≈ 13.6 µg/mL)	–	–	–	–	–	–
CC(=O)OC[C@H]1O[C@@H](SSc2sc(N)nc2-c2ccccc2)[C@H](OC(C)=O)[C@@H](OC(C)=O)[C@@H]1OC(C)=O [Compound 4b, 5-[(2,3,4,6-Tetra-O-acetyl-β-D-glucopyranosyl)disulfanyl]-2-amino-4-phenylthiazole]	20.5 ± 2.7 µM (≈ 11.7 µg/mL)	31.2 ± 2 µM (≈ 17.8 µg/mL)	28.4 ± 3.1 µM (≈ 16.2 µg/mL)	24.1 µM	> 25 µM	> 25 µM	19 µM	–	–
Nc1nc(-c2ccc(Br)cc2)c(SSc2sc(N)nc2-c2ccc(Br)cc2)s1 [Compound 1c]	3.1 ± 0.4 µM (≈ 1.77 µg/mL)	15.7 ± 2.3 µM (≈ 8.99 µg/mL)	3.4 ± 0.4 µM (≈ 1.95 µg/mL)	–	–	–	–	–	–
Nc1nc(-c2ccc(Cl)cc2)c(SSc2sc(N)nc2-c2ccc(Cl)cc2)s1 [Compound 1d]	5 ± 0.4 µM (≈ 2.42 µg/mL)	30.9 ± 3 µM (≈ 14.9 µg/mL)	2.8 ± 0.2 µM (≈ 1.35 µg/mL)	–	–	–	–	–	–
Nc1nc(-c2ccccc2)c(SSc2sc(N)nc2-c2ccccc2)s1 [Compound 1b, bis(2-amino-4-phenyl-5-thiazolyl)disulfide]	6.2 ± 0.6 µM (≈ 2.57 µg/mL)	13.9 ± 1.3 µM (≈ 5.76 µg/mL)	5.2 ± 0.5 µM (≈ 2.16 µg/mL)	–	–	–	–	–	–
CC(=O)O[C@@H]1[C@@H](OC(C)=O)[C@H](SSc2sc(N)nc2-c2ccccc2)OC[C@H]1OC(C)=O [Compound 4g, 5-[(2,3,4-Tri-O-acetyl-β-D-xylopyranosyl)disulfanyl]-2-amino-4-phenylthiazole]	35.7 ± 3 µM (≈ 17.8 µg/mL)	42.1 ± 4.1 µM (≈ 21 µg/mL)	34 ± 1.6 µM (≈ 17 µg/mL)	> 25 µM	> 25 µM	> 25 µM	> 25 µM	–	–
O=[N+]([O-])c1ccc(O)c(Cl)c1 [Nitrofungin, reference compound]	–	–	–	–	–	–	–	4.3 ± 0.4 µM	4.1 ± 0.5 µM
COc1ccc(-c2nc(N)sc2SS[C@@H]2O[C@H](COC(C)=O)[C@@H](OC(C)=O)[C@H](OC(C)=O)[C@H]2OC(C)=O)cc1 [Compound 4a, 5-[(2,3,4,6-Tetra-O-acetyl-β-D-glucopyranosyl)disulfanyl]-2-amino-4-(4-methoxyphenyl) thiazole]	31.5 ± 3.1 µM (≈ 18.9 µg/mL)	> 50 µM	32.5 ± 3.2 µM (≈ 19.5 µg/mL)	> 25 µM	> 25 µM	> 25 µM	19.9 µM	–	–
CC(=O)O[C@@H]1[C@@H](OC(C)=O)[C@H](SSc2sc(N)nc2-c2ccc(C)cc2)OC[C@H]1OC(C)=O [Compound 4j, 5-[(2,3,4-Tri-O-acetyl-β-D-xylopyranosyl)disulfanyl]-2-amino-4-(p-tolyl)thiazole]	18.1 ± 1 µM (≈ 9.28 µg/mL)	25.5 ± 2 µM (≈ 13.1 µg/mL)	25 ± 1.4 µM (≈ 12.8 µg/mL)	23.7 µM	> 25 µM	> 25 µM	> 25 µM	–	–

Now from value to compound, other results behind:

MIC50 [3]	MIC50 [4]	MIC50 [5]	Compound	EC50 [1]	EC50 (HeLa (cervical cancer))	EC50 [2]	EC50 at 24 h [6]	Inhibition of Biofilm Formation MIC50, C. albicans [7]	Inhibition of Microbial Growth MIC50, C. albicans [3]
> 50 µM	> 50 µM	> 50 µM	Nc1nc(-c2ccccc2)c(SS[C@@H]2O[C@H](CO)[C@@H](O)[C@H](O)[C@H]2O)s1 [Compound 5b, 5-[(β-D-glucopyranosyl)disulfanyl]-2-amino-4-phenylthiazole hydrochloride]	> 25 µM	> 25 µM	> 25 µM	20.8 µM	–	–
38.5 ± 3.4 µM	> 50 µM	> 50 µM	Cc1ccc(-c2nc(N)sc2SS[C@@H]2O[C@H](CO)[C@@H](O)[C@H](O)[C@H]2O)cc1 [Compound 5e, 5-[(β-D-glucopyranosyl)disulfanyl]-2-amino-4-(p-tolyl)thiazole hydrochloride]	23.5 µM	> 25 µM	> 25 µM	22.6 µM	–	–
> 50 µM	> 50 µM	> 50 µM	COc1ccc(-c2nc(N)sc2SS[C@@H]2O[C@H](CO)[C@@H](O)[C@H](O)[C@H]2O)cc1 [Compound 5a, 5-[(β-D-glucopyranosyl)disulfanyl]-2-amino-4-(4-methoxyphenyl)thiazole hydrochloride]	24.9 µM	> 25 µM	> 25 µM	> 25 µM	–	–
25.3 ± 1 µM	24.9 ± 2.2 µM	> 50 µM	Nc1nc(-c2ccccc2)c(SS[C@@H]2OC[C@@H](O)[C@H](O)[C@H]2O)s1 [Compound 5g, 5-[(β-D-xylopyranosyl)disulfanyl]-2-amino-4-phenylthiazole hydrochloride]	> 25 µM	> 25 µM	> 25 µM	22 µM	–	–
13.8 ± 1.2 µM	21 ± 3 µM	13.7 ± 1.1 µM	Nc1nc(-c2ccc(Cl)cc2)c(SS[C@@H]2OC[C@@H](O)[C@H](O)[C@H]2O)s1 [Compound 5i, 5-[(β-D-xylopyranosyl)disulfanyl]-2-amino-4-(4-clorophenyl)thiazole hydrochloride]	> 25 µM	> 25 µM	> 25 µM	> 25 µM	–	–
36.2 ± 2.1 µM	> 50 µM	> 50 µM	COc1ccc(-c2nc(N)sc2SS[C@@H]2OC[C@@H](O)[C@H](O)[C@H]2O)cc1 [Compound 5f, 5-[(β-D-xylopyranosyl)disulfanyl]-2-amino-4-(4-methoxyphenyl)thiazole hydrochloride]	> 25 µM	> 25 µM	> 25 µM	> 25 µM	–	–
